Publication PMC8807399, “Synthesis, Characterization, and in vivo Evaluation of a Novel Potent Autotaxin-Inhibitor” (Frontiers in Pharmacology, 2022)
In brackets after ≈: the same amount, converted by molar mass.

Tests used:
HT-solubility assay = format: physicochemical; details: aqueous buffer, thermodynamic from solid; phosphate buffer pH 6.5
Method: This assay was performed on a TECAN station starting from 10 mM DMSO stock solutions of the test compounds. Two aliquots of the test compound were dried and dissolved in phosphate buffer at pH 6.5. Sonication supports optimal re-solubilization. The solutions were then filtered and diluted (3 different dilution levels for each compound) followed by quantification of the dissolved material with Rapid-Fire MS. Quantification was performed for each test compound with a 6-point calibration curve prepared with the same DMSO starting solution.

[1] = In vitro microsomal stability, human; format: in vitro ADME; details: human microsomes, 1 µM; value of 10 = low clearance, essentially below detection limit
Method: (§1) Incubations of a test compound at a concentration of 1 µM with microsomes (0.5 mg/ml) from the appropriate species (human, mouse, or rat) plus cofactor NADPH were performed in 96-well plates at 37°C on a TECAN automated liquid handling system (Tecan Group Ltd., Männedorf, Switzerland). After pre-incubation of the test compound with the microsomes for 10 min, the enzymatic reaction was started by the addition of cofactors. Aliquots of the incubations are removed at 1, 3, 6, 9, 15, 25, 35, and 45 min and are then quenched with 1:3 (v/v) acetonitrile containing internal standards. Samples were then cooled and centrifuged before analysis of the supernatant by LC-MS/MS. Logarithmic Peak area ratios (test compound peak area/internal standard peak area) were plotted against incubation time and a linear fit made to the data with emphasis upon the initial rate of compound disappearance. The slope of the fit was then used to calculate the intrinsic clearance: Clint (µL/min/mg protein) = −slope (min-1) * 1,000/[protein concentration (mg/ml)].

Single dose PK in rats = format: in vivo; details: rat; for AUC(0-inf) / half-life / clearance / Vd / Cmax / Tmax: plasma; for clearance: read-out: CLp; for Vd: read-out: Vdss
Method: Exposures in animals treated with ATX-inhibitors were determined from K2EDTA treated plasma by LC-MS/MS at different time points. 25 µL of plasma was used for a single concentration determination. Concentration/time profiles were analyzed with MS Excel (Microsoft Corporation, Redmond, WA, United States).
For PK experiments for 7, 13, 14, and 15, respectively, animals were treated either iv or po and exposures were determined at different time points after compound administration. Suitable formulations for 13 were, for example, NMP:Tris buffer pH 8.5 (30%/70%) for iv administration with a nominal drug concentration of 1 mg/ml (dose 2 mg/kg) and a suspension in NMP:gelatine/NaCl (10%/90%) for po administration with a nominal drug concentration of 2.5 mg/ml (dose 10 mg/kg). PK parameters in Table 2 were estimated from the concentration time profiles using Phoenix WinNonlin software (Certara, Princeton, NJ, United States).

[2] = Lipophilicity (LogD, octanol/buffer); format: physicochemical; details: 1-octanol / 25 mM phosphate buffer; pH 7.4, octanol/25 mM phosphate buffer
Method: The experiment started with the accurate coating of the hydrophobic layer (0.45 µm PVDF membranes), which was fixed on the bottom of each DIFI©-tube (Weidmann Medical Technology AG, Rapperswil, Switzerland). The coated membranes were then connected to a 96-well plate which has been prefilled with exactly 150 µl of the selected aqueous buffer solution (25 mM phosphate buffer, pH 7.4). The buffer solution contains already the compound of interest with a maximum starting concentration of 85 µM. To expand the measurement range down to logD = −0.5 and up to logD = +4, it is necessary to carry out the procedure at two different octanol/water ratios: One with an excess of octanol for hydrophilic compounds (logD < 1) and one with a low volume of octanol for the lipophilic compounds (logD > 1). Therefore, parts of the DIFI©-tubes were filled with 15 µl 1-octanol and another part with 1 µl 1-octanol. The resulting sandwich guarantees that the membrane was completely dipped in the buffer solution. The plate was then sealed and shaken for 12 h at room temperature (23°C). During this time, the substance is distributed between the layer, the octanol, and the buffer solution. After having reached a distribution equilibrium, the DIFI©-tubes were easily disassembled from the top of the 96-well plate, so that the remaining sample concentration in the aqueous phase could be analyzed by LC/MS.

[3] = Glutathione addition screening; format: in vitro ADME; details: human liver microsomes + NADPH + GSH
Method: All sample handling was performed based on a 96-well plate format using an automated pipetting system. The test compounds, positive controls (diclofenac, troglitazone, nefazodone, 4-[[1-(4-fluorophenyl)-2-methyl-1H-imidazol-4-yl]ethynyl]-2-methylpyridine) and solvent control (DMSO) were incubated with human liver microsomes supplemented with NADPH and reduced GSH. Stable GSH conjugates whose production can be assumed to be the result of chemically reactive metabolites were detected using a quadrupole time of flight mass spectrometer run in untargeted full scan accurate mass MSE mode (Waters Xevo G1 QTOFMSE; Waters GmbH, Eschborn, Germany). This generic GSH adduct detection method and the assay workflow are taking advantage of the specific fragmentation behavior of the peptide moiety upon collision induced dissociation of GSH adducts and so are largely independent of the conjugate (“X”) itself.

[4] = Artificial membrane permeability assay; format: in vitro ADME; details: PAMPA, read-out: Permeability Pe
Method: The assay was performed in an automated fashion on 96-well microplates. The permeation of drugs was measured using a “sandwich” construction: A filter-plate was coated with phospholipids (membrane) and placed into a donor compartment containing a compound/buffer solution. Finally, the top of filter-plate was filled with buffer solution (acceptor). Donor concentration was measured at t-start (reference) and compared with the donor and acceptor concentration after a certain time (t-end) to calculate the extent of passage of the compound through the membrane. The main readout of the assay was the permeability value Pe expressed in 10^–6 * cm/s. Secondary readouts determined were the amount of compound in the donor and acceptor compartments as well as the retention in the membrane. Depending on the permeation rate and the membrane retention the compounds were classified as low (Pe < 0.2 and membrane < 20%) or medium and high (Pe ≥ 0.2 or Pe < 0.2 and membrane ≥ 20%). Each sample was measured in triplicate and a standard deviation was determined for the permeation constant Pe.

[5] = In vitro microsomal stability, mouse; format: in vitro ADME; details: mouse microsomes, 1 µM; value of 10 = low clearance, essentially below detection limit
Method: as §1

human ATX = molecular target: T1, human ATX (Homo sapiens, UniProt Q13822); assay: Autotaxin inhibition assay (Amplex-Red); format: biochemical; details: ATX 3 nM, LPC 18:1 30 μM, read-out: hATX IC50
T1 construct: made in house
Method: Plates were sealed and incubated for 5 min. The final assay concentrations were ATX 3 nM, choline oxidase 2 U/ml, horseradish peroxidase 4 U/ml, LPC 18:1 30 μM, Amplex Red 50 μM, and DMSO 2%.

[6] = In vitro microsomal stability, rat; format: in vitro ADME; details: rat microsomes, 1 µM; value of 10 = low clearance, essentially below detection limit
Method: as §1

solubility (HT-solubility assay)	Mic CL h [1]	AUC(0-inf) (Single dose PK in rats; iv bolus, 3 mg/kg)	half-life (Single dose PK in rats; iv bolus, 3 mg/kg)	clearance (Single dose PK in rats; iv bolus, 3 mg/kg)	Vd (Single dose PK in rats; iv bolus, 3 mg/kg)	AUC(0-inf) (Single dose PK in rats; oral gavage, 30 mg/kg)	Cmax (Single dose PK in rats; oral gavage, 30 mg/kg)	Tmax (Single dose PK in rats; oral gavage, 30 mg/kg)	half-life (Single dose PK in rats; oral gavage, 30 mg/kg)	Oral F (Single dose PK in rats; oral gavage, 30 mg/kg)	logD at 12 h [2]	GSH adducts [3]	Papp [4]	Mic CL m [5]	IC50 (human ATX)	Mic CL r [6]	SMILES
190 µg/mL (≈ 377 µM)	10/10/na µL/m/mg prot	321 ng·h/mL	21 min	156 mL/min/kg	1.7 L/kg	30 ng·h/mL	18 ng/mL	15 min	114 min	1.1%	2	Neg	0.4 ×10⁻⁶ cm/s	10/10/na µL/m/mg prot	8 nM	–	CS(=O)(=O)c1cc(Cl)cc(COC(=O)N2C[C@@H]3CN(C(=O)c4ccc5[nH]nnc5c4)C[C@H]3C2)c1 [Compound 15, (3aS,6aS)-5-(1H-Benzotriazole-5-carbonyl)-hexahydro-pyrrolo[3,4-c]pyrrole-2-carboxylic acid 3-chloro-5-methanesulfonyl-benzyl ester]
46 µg/mL (≈ 97.2 µM)	10 µL/m/mg prot	1070 ng·h/mL	78 min	47 mL/min/kg	0.9 L/kg	660 ng·h/mL	130 ng/mL	30 min	228 min	6%	2.5	Neg	2.7 ×10⁻⁶ cm/s	27 µL/m/mg prot	6 nM	40 µL/m/mg prot	O=C(CCc1ccc(OC(F)(F)F)cc1)N1C[C@@H]2CN(C(=O)c3ccc4[nH]nnc4c3)C[C@H]2C1 [Compound 14, 1-[(3aR,6aR)-5-(1H-benzotriazole-5-carbonyl)-hexahydro-pyrrolo[3,4-c]pyrrol-2-yl]-3-(4-trifluoromethoxy-phenyl)-propan-1-one]
8 µg/mL (≈ 16.8 µM)	10/na/10 µL/m/mg prot	–	–	–	–	–	–	–	–	–	3.2	Neg	1.8 ×10⁻⁶ cm/s	–	137 nM	10/na/10 µL/m/mg prot	O=C(COc1ccc(OC(F)(F)F)cc1)N1C[C@@H]2CN(C(=O)c3ccc4[nH]nnc4c3)C[C@H]2C1 [Compound 12, 1-[(3aS,6aS)-5-(1H-Benzotriazole-5-carbonyl)-hexahydro-pyrrolo[3,4-c]pyrrol-2-yl]-2-(4-trifluoromethoxy-phenoxy)-ethanone]
